US20240366577A1, “CONTROLLED LONG-TERM DRUG DELIVERY AND METHODS THEREOF” (THE JOHNS HOPKINS UNIVERSITY, priority 2021, published 2024)

Experiments:
Format in all cases: in vivo, BALB/c mice
[1] = test system: endothelial cell marker Cd31; assay: qPCR of retrieved tumors: Cd31; settings: crystals, compared to daily liquid bolus drug treatment; tumors at end of study
Procedure: To determine the anti-angiogenic efficacy of each sorafenib treatment group, qPCR gene expression analysis was performed on retrieved tumors at the conclusion of the study. In particular, analysis for levels of endothelial cell marker Cd31, vascular endothelial-cadherin (VE-Cdh), smooth muscle pericyte marker alpha Smooth Muscle actin (aSMact), and stem/progenitor cell marker Cd34 were conducted, as shown in FIG. 3F.
1 mL of TRIzol reagent (Cat#15596018, ThermoFisher) was added to 100 mg samples of tumor tissue and broken down with a power homogenizer (Polytron/VWR). Homogenized samples were incubated at room temperature for 5 min for complete nucleoprotein dissociation, then 0.2 ml of chloroform (Sigma) was added to each sample. Samples were shaken vigorously for 15 seconds and incubated at room temperature for 3 min before centrifuging at 12,000 g for 15 min at 4° C. The uppermost supernatant layer was pipetted into a 1.7 mL Eppendorf tube, with the remaining interphase and organic layer discarded. 0.5 mL of isopropanol (Sigma) was added to each sample, and then samples were incubated for 10 min. Samples were centrifuged at 12,000 g for 10 min at 4° C. […] Depending on size of resultant pellet, pellets were resuspended in 50-100 μL, and nucleic acid concentration was measured using a NanoDrop 2000 spectrophotometer (ThermoFisher). […]

[2] = test system: macrophage Cd68 and myeloid Cd11b; assay: qPCR of retrieved tumors: immune markers; settings: crystal treatment groups
4T1 tumors = assay: orthotopic parent 4T1 TNBC tumor growth
Procedure: Namely, 4T1 tumors were treated with either PBS (PBS CONTROL), intraperitoneal (IP) bolus sorafenib (25 mg/kg BW/day) (IP BOLUS), 3 mg IP injected sorafenib crystals (IP CRYSTAL 3 MG), or sorafenib crystals (3 mg: SC CRYSTAL (3 MG); 10 mg: SC CRYSTAL (10 MG)) injected around developed tumors in the subcutaneous (SC) mammary fatpad. Furthermore, to truly test the utility of crystalline sorafenib in treating such an aggressive TNBC model, treatment was carried out retrospectively and only started once tumor volumes reached ˜225-250 mm^3. A positive control liquid-dissolved and daily injected drug treatment group was included, where mice were dosed with a daily bolus of 25 mg sorafenib/kg of mouse BW. […] This may be supported by our prior observation that in the IP compartment, where there is higher 10 liquid turnover as compared to the SC space, crystalline drugs usually have a faster kinetic of release over time.
4T1 or 4T1-luc2 cells were trypsinized using 0.25% Trypsin-EDTA, then diluted with the appropriate complete culture media and spun in a centrifuge at 300 g for 5 min. The supernatant was aspirated, and the pellet was re-suspended in serum-free RPMI 1640. The solution was centrifuged again, and the supernatant aspirated. Re-suspension, centrifugation, and aspiration was repeated once more. 5 mL of RPMI-1640 was then added to the pellet. 10 μL of the cell suspension was removed and mixed with 10 μL of Trypan blue stain 0.4% (ThermoFisher). Cells were counted with a Countess automated cell counter. Cell solutions were centrifuged one more time, the supernatant aspirated, and the pellet resuspended in the amount of RPMI-1640 required to achieve a concentration of 5×10^5 cells/200 μL of media. Tumor cells were then administered orthotopically in naive (and anesthetized) BALB/c mice into the right inguinal mammary fat pad 21 with 200 μL aliquots of the cell suspension, using an insulin syringe. Tumors were measured externally using a digital caliper, and volume was calculated (!″* (length * height) *−length * height). Except in the 4T1-luc2 trial, treatment began once tumors reached an average volume of 220-250 mm3. Experimental end point was deemed when solid tumors reached a volume of no more than 2000 mm3. Tumors were extracted and harvested, half stored in 4% paraformaldehyde diluted from 32% (Cat#50980495, Electron Microscopy Services) with DI H2O, and half frozen in liquid nitrogen, then stored at −80° C.
Once tumors had reached an average volume of ˜220-250 mm^3, mice were administered either subcutaneously or intraperitoneally with 3 or 10 mg of crystalline sorafenib, diameter ˜150-200 μm, suspended in 200 μL of sterile saline using an 18 g needle. […]

## CNC(=O)c1cc(Oc2ccc(NC(=O)Nc3ccc(Cl)c(C(F)(F)F)c3)cc2)ccn1 [crystalline sorafenib, sorafenib]
[1]
  endothelial cell Cd31 expression levels (qPCR): more effectively reduced
[2]
  Cd68 and Cd11b expression levels (qPCR): no significant changes
4T1 tumors; single IP injection, 3 mg crystals
  tumor response (tumor volume): less response than 10 mg SC but more than a comparable 3 mg dose injected SC
4T1 tumors; single local SC injection, 10 mg crystals, start at ~225-250 mm^3
  tumor response (tumor volume): tumor stasis
4T1 tumors; single local SC injection, 2-3 mg crystals, start at ~225-250 mm^3
  tumor response (tumor volume): tumor delays only
